Our source for the EC50 values is ChEMBL document CHEMBL1151317, “A new bromopyrrole alkaloid and the optical resolution of the racemate from the marine sponge homaxinella sp” (1998).

Each structure is given as a SMILES string. ≈ marks a conversion by molar mass, not a printed value.

In this assay the test system is P388. As to the kind of experiment: Cytotoxicity against mouse P388 cells. The format is functional. Conditions: read-out: ED50 (the source's name).
`O=C1NCC(O)n2c1cc(Br)c2Br` (racemic) [LONGAMIDE]: the EC50 is over 100 µg/mL.

For the compound `COC(=O)CC1CNC(=O)c2cc(Br)c(Br)n21` (racemic), the EC50 is 30 µg/mL (≈ 82 µM).

As for `COCNC(=O)c1cc(Br)c(Br)[nH]1`, the EC50 came to 21.5 µg/mL (≈ 68.9 µM).
